Tests used:
[1] = system: A549, NCI-H23, NCI-H520, NCI-H460, C8161/M1, HeLa, NIH3T3, E10V, SVEC4-10 cell lines; experiment: Cytotoxicity assay (MTT); type: cell-based; settings: 7.5 μg/ml, after 1 h treatment; positive control
Experimental: In this assay cell lines were exposed to two different concentrations (50 μg/and 500 μg/ml) of IS257 targeting unit (described in Example 3) for two to three days to test the toxicity of the peptides. The measurement of cell viability was done with MTT (Thiazolyl blue, Sigma M-5655 ) tetrazolium salt. MTT is cleaved to water-insoluble formazan dye by the “succinate-tetrazolium reductase” system which is active only in viable cells. After formazan was solubilized by 10% SDS-0.01 M HCl, it was quantified in an ELISA spectrometer (ThermoLabsystems Multiscan EX) at 560 nm. CuSAO2 [trans-bis(salicylaldoximato) copper(II)] (Elo HO, Lumme PO., 1985) 7.5 μg/ml was used as a positive control for 100% toxicity.
Procedure. Cells were trypsinized from the cell culture dish (ø9 cm) with 1 ml of TE for 1-5 minutes and moved to a 50 ml Falcon tube. […]
Then 40 μl of IS257 targeting unit in appropriate medium were added to the wells in two concentrations, so that final concentrations were 50 μg/ml and 500 μg/ml, and the volume of the wells was raised back to 100 μl. […] The next day the cell morphology was analyzed with a microscope. […]
The next day, the MTT assay described above was performed. The viable count (v.c.) was calculated as:
Average toxicated cell absorbance−Average DMEM absorbance=Viable count Average living cell absorbance−Average DMEM absorbance […]

human lung tumor tissue = settings: enriched peptide sequences collected from ex vivo panning rounds four to six
Text: Phage display libraries. Standard procedures according to Smith and Scott (1993) were used. Phage display libraries used for screening of clinical samples were cloned in fUSE5 vectors and were of the structure X7 and X10, thus they were linear containing seven or ten random amino acids. The libraries were used separately or as a mixture. The E. coli strain K91kan was used as host for phage amplification.
Subtractional panning. Bio-panning was started with depletion of phage clones binding to normal lung. Normal lung tissue taken from surgical lung resection, removed during dissection of tumor, was placed in ice cold DMEM (Dulbecco's medium) containing protease inhibitors (PI); 10 mM PMSF ([…]), Aprotinin (10 mg/ml) Leupeptin (10 mg/ml). Tissue samples were minced with a razor blade in a small cell culture plate in 1 ml of DMEM-PI. The samples were transferred to an eppendorf tube and washed with 1 ml DMEM-PI.
Samples were centrifuged at 4000 rpm for 5 min and were then incubated with 10^10 transforming units (TU) of phage (from one or more peptide libraries) in 1 ml DMEM-PI at 25° C. for 45 min. After this the samples were washed three times with DMEM-PI containing 1% BSA (bovine serum albumin).
Phage display on clinical tumor samples. Tissue samples were surgically removed from primary tumors of non-small cell lung cancer patients and placed in ice DMEM-PI. Part of sample was taken for pathological examination. The type and nature of the tumor samples were first verified as being NSCLC. After that, specification of subtype of NSCLC and its stage was done by pathologists.
Tissue samples were minced with a razor blade in a small cell culture plate in 1 ml of DMEM containing protease inhibitors. The samples were transferred to an eppendorf tube and washed with 1 ml DMEM-PI.
Samples were centrifuged at 4000 rpm for 5 min and were then incubated with 10^10 TU of phage (from one or more peptide libraries) in iml DMEM-PI at 25° C. for 15 min. After this the samples were washed three times with DMEM-PI containing 1% BSA (bovine serum albumin).
1 ml K91kan bacteria, OD600: 1-1.5, in LB containing 100 μg/ml kanamycin (kan) were infected with the washed pellet containing selectively attached phage particles at 25° C. for 25 min. After infection volume was increased to 2 ml with LB containing 100 μg/ml kan.
Then infected bacteria were plated on LB agar plates containing 40 μg/ml tetracycline (tet) as follows: Two parallel plates of three dilutions (1:50, 1:500, 1:5000) and the rest of the above K91kan culture in 200 μl aliquots. The plates were incubated overnight at +37° C.
The following day 24-48 colonies were picked from the LBtet plates into 96-well micro-plates for sequencing of the phage DNA. Alternatively the clones were stored for later analysis at −20° C.
Monitoring of enrichment of peptides.

[2] = system: NIH3T3, mouse fibroblast cell line; settings: wells coated at 30 μg/ml; 75000 cells, 30 minutes at 37° C.; control cell line NIH3T3
Experimental: (§1) Preparation of plates for assays. Wells of Reacti-Bind Maleimide activated clear strip plate (Pierce, Prod#. 15150) were coated with targeting agents of this invention at a concentration of 30 μg/ml. The incubation was carried out of overnight at 20° C. The binding buffer containing unbound peptide was removed from the wells.
(§2) The wells were blocked with blocking buffer (1.0% BSA, 0.05% Tween20 in phosphate buffer saline (PBS) pH 7.0. PBS was prepared as follows: […] of NaCl, 1 g of KCl, 7 g of Na2HPO4×2H2O and 1 g of KH2PO4 were dissolved to 1000 ml of deionized H2O). Blank wells as controls were prepared by treating empty wells with blocking buffer. The plates were incubated 1 hour 30 min at 20° C.
(§3) After incubation the plate was washed three times with PBS. Cell binding assays. 75000 cells in volume of 150 μl of medium were added into coated wells and were incubated for 30 minutes at 37° C. After cell binding, the wells were washed with PBS for 30 minutes. Detection of targeting agent bound cells were based on the MTT assay (described in detail in Example 23, Cytotoxicity). 10 μl of MTT reagent and 90 μl of medium were added to the wells. The plate was incubated for three hours at +37° C. After the incubation, 100 μl of lysis buffer was added to the wells and let to incubated o/n 37° C. On following day the absorbance of plate was measured at 560 nm with ELISA-reader (ThermoLabsystems, multiskan EX).
(§4) Cell lines NCI-H23, NCI-H520, A549, HeLa and NIH3T3 (described in Example 18) and targeting agents HP199, HP201 and HP205 (described in Examples 5, 6, 17) were used in the cell binding.
(§5) The results are shown as measured absorbance at 560 nm.

NSCLC cell line A549 = settings: wells coated at 30 μg/ml, 75000 cells, 30 minutes at 37° C.
Experimental: as §1, §2, §3, §4, §5

NSCLC cell line NCI-H520 = settings: wells coated at 30 μg/ml, 75000 cells, 30 minutes at 37° C.
Experimental: as §1, §2, §3, §4, §5

[3] = system: PASMC, human primary pulmonary artery smooth muscle cell line; settings: wells coated at 30 μg/ml; 75000 cells, 30 minutes at 37° C.; control cell line PASMC
Experimental: as §1, §2, §3, §4, §5

NSCLC cell line NCI-H23 = settings: wells coated at 30 μg/ml, 75000 cells, 30 minutes at 37° C.
Experimental: as §1, §2, §3, §4, §5

HeLa cells = settings: 50 μg/ml in PBS, pH 7.4; methanol-fixed HeLa cells
Experimental: (§8) A549 cells and HeLa cells (described in Example 18) were grown on glass slides, washed with PBS and then fixed with methanol. The fluorescent targeting agent F5M-A49 (described in Example 10) was used to stain these cells as follows: Cells were first blocked with blocking buffer (1.0% BSA, 0.05% Tween20 in PBS, pH 7.4) for one hour at 20° C. The cells on the glass slides were incubated with 20 μl of F5M-A49 targeting agent (50 μg/ml in PBS, pH 7.4). As control, binding of F5M-A49 was competed with 20 μl of IS257 targeting unit (free peptide described in Example 3), 500 μg/ml in PBS, pH 7.4) prior to addition of the targeting agent. As negative controls, cells not incubated with any targeting agent were used. After the staining the cells were mounted on object glasses with mountex (Histolab Products Ltd). After this cells were viewed under a fluorescent microscope (Carl Zeiss Microscopy, Jena, Germany).

A549 cells = experiment: Fluorescent targeting agent staining of fixed cells; type: cell-based, human; settings: 50 μg/ml in PBS, pH 7.4; methanol-fixed A549 cells
Experimental: as §8

HeLa = settings: 5 pM, 30 min at 37° C.; control cell line HeLa
Experimental: (§6) 5000 cells, A549, NCI-H23, NCI-H520, NCI-H460, and control cells PASMC and HeLa (described in Example 18), are grown in multi-well plates, according to the conditions described in Example 18.
(§7) After 30 min of incubation cells are washed 5 times with PBS. PBS is removed and cells are lysed by shaking in Inducer Solution (Perkin-Elmer Ltd) for 15 min. After this, fluorescence is measured by time resolved fluorescence using a Victor III fluorometer (Perkin-Elmer Ltd).

PASMC = settings: 5 pM, 30 min at 37° C.; control cell line PASMC
Experimental: as §6, §7

## [Cu+2].[O-]c1ccccc1C=NO.[O-]c1ccccc1C=NO [CuSAO2, trans-bis(salicylaldoximato) copper(II), reference compound]
[1]
  cell killing: 100%

## ARAPGVMPTT
Human lung tumor tissue
  Frequency: 2

## ARLPQVELSA
Human lung tumor tissue
  Frequency: 3

## ARMPPRS
Human lung tumor tissue
  Frequency: 2

## ARPPKGVNWT
Human lung tumor tissue
  Frequency: 3

## ARRPKLD [Ala-Arg-Arg-Pro-Lys-Leu-Asp]
Human lung tumor tissue
  Frequency: 22

## Ac-ARRPKLD-GAAG-PEG-G3-EAT [HP201]
[2]
  binding of cells to immobilized targeting agent (absorbance at 560 nm): do not
NSCLC cell line A549
  binding of cells to immobilized targeting agent (absorbance at 560 nm): bind selectively
NSCLC cell line NCI-H520
  binding of cells to immobilized targeting agent (absorbance at 560 nm): bind selectively
[3]
  binding of cells to immobilized targeting agent (absorbance at 560 nm): do not
NSCLC cell line NCI-H23
  binding of cells to immobilized targeting agent (absorbance at 560 nm): bind selectively

## Ala-Asp-Gly-Ala-Ala-Arg-Arg-Pro-Lys-Leu-Asp-Gly-Ala-Ala-Gly-NH—CH2CH2—O—CH2CH2—O—CH2CH2—O—CH2—C(O)-Gly-Gly-Gly-NHCH2CH2SH [HP199]
[2]
  binding of cells to immobilized targeting agent (absorbance at 560 nm): do not
NSCLC cell line A549
  binding of cells to immobilized targeting agent (absorbance at 560 nm): bind selectively
NSCLC cell line NCI-H520
  binding of cells to immobilized targeting agent (absorbance at 560 nm): bind selectively
[3]
  binding of cells to immobilized targeting agent (absorbance at 560 nm): do not
NSCLC cell line NCI-H23
  binding of cells to immobilized targeting agent (absorbance at 560 nm): bind selectively

## CH3C(O)-Ala-Arg-Arg-Pro-Lys-Leu-Asp-Gly-Ala-Ala-Gly-NH—(CH2)3—(O—CH2CH2)3—CH2—NH—C(O)CH2CH2—C(O)—NHCH2CH2S—C2H3(COOH)—C(O)—NH—(C20H11O5) [F5M-A49]
HeLa cells
  staining of cells (fluorescent microscope): no staining
A549 cells
  staining of cells (fluorescent microscope): strong staining

## CH3C(O)-Ala-Arg-Arg-Pro-Lys-Leu-Asp-Gly-Ala-NHCH2CH2S-p-CH2CONH-benzyl-DTPA europium chelate [A48-Eu]
HeLa
  binding of targeting agent to cells: no binding
PASMC
  binding of targeting agent to cells: no binding

## H-Ala-Asp-Gly-Ala-asp-Pro-Leu-Lys-Arg-Ala-Arg-Gly-Ala-Ala-Gly-NH-CH2CH2—O—CH2CH2—O—CH2CH2—O—CH2—C(O)-Gly3-NHCH2CH2SH [HP205, reference compound]
NSCLC cell line A549
  binding of cells to immobilized targeting agent (absorbance at 560 nm): do not bind
NSCLC cell line NCI-H520
  binding of cells to immobilized targeting agent (absorbance at 560 nm): do not bind
NSCLC cell line NCI-H23
  binding of cells to immobilized targeting agent (absorbance at 560 nm): do not bind

## SRAPNSVQHD
Human lung tumor tissue
  Frequency: 2

## SRAPVAP
Human lung tumor tissue
  Frequency: 2

## SRLPSAGTFQ
Human lung tumor tissue
  Frequency: 2

## SRNPGLLTVR
Human lung tumor tissue
  Frequency: 2

— patent US20090180958A1, “Diagnostic and therapeutic agents” (Karyon-CTT Ltd., priority 2005, published 2009)
